Values joined by “and” are separate entries in the source; they are usually repeats but may differ in a detail not shown here. Equal values may be shown once.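 Growth conditions: 96-well plates. Treatment: test compound, 48 hours, 5 concentrations. Analysis: linear interpolation between bracketing concentrations; unreached endpoints set to highest concentration. Abbreviation: GI50, concentration required for 50% inhibition of growth.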 Active and inactive are the calls of the source. No stated cut-off is given here; in the data, active = GI50 up to about 1.1 µM and inactive = higher.
Legend:
Test in all cases: inhibition of tumour cell growth, NCI panel, 48 h
[1] = test system: LXFL 529
[2] = test system: KM-20L2
[3] = test system: DMS-273
[4] = test system: RXF 631
[5] = test system: SNB-78
[6] = test system: XF498
[7] = test system: HOP-18
[8] = test system: DLD-1

Measured: GI50

Cn1c(=O)nc2n(-c3cccc(Cl)c3)c3ccccc3nc-2c1=O
inactive: [1] 18.6 µM | [2] 5.92 µM | [3] 9.55 µM | [4] 13.5 µM | [5] 23.7 µM | [6] 19.9 µM | [7] 12.2 µM

C/C(CC(=O)CCC(=O)Nc1cccc(C(F)(F)F)c1)=N\NC(=O)NN
inactive: [1] > 100 µM | [2] > 100 µM | [3] > 100 µM | [8] > 100 µM | [4] > 100 µM | [5] > 100 µM | [6] > 100 µM | [7] > 100 µM

CCCCCCCCCCNCCSSCc1ccc(Cl)cc1
inactive: [1] 1.56 µM | [2] 1.36 µM | [3] 1.4 µM | [8] 2.07 µM | [4] 1.69 µM | [6] 2.8 µM | [7] > 10 µM

CC1OC(OC23C(=O)CC(C)(O)CC2(O)C=CC2=C3C(=O)c3ccc(C4CC(OC5CCC(OC6CC(O)C(O)C(C)O6)C(C)O5)C(O)C(C)O4)c(O)c3C2=O)CCC1O (stereo not drawn)
inactive: [1] 15.4 µM and 11.5 µM | [2] 19.1 µM and 19.7 µM | [8] 11.1 µM and 13.6 µM | [4] 12.9 µM and 20.1 µM | [5] 17.3 µM and 17.7 µM | [6] 18.2 µM and 18.9 µM | [7] 17.5 µM and 17.1 µM

O=S(=O)(/C=C/CS(=O)(=O)c1ccccc1)c1ccccc1
inactive: [1] 29.1 µM | [2] 29.2 µM | [3] 29.8 µM | [8] 23.6 µM | [4] 24.7 µM | [5] 26.7 µM | [6] 20.7 µM | [7] > 100 µM

CC[As](CC)SCC1OC(OC(C)=O)C(OC(C)=O)C(OC(C)=O)C1OC(C)=O (stereo not drawn)
inactive: [1] 1.92 µM | [2] 18.7 µM | [3] 15.6 µM | [8] 16.1 µM | [4] 2.67 µM | [5] 10.4 µM | [6] 17.7 µM | [7] 16.1 µM

O=C1[C@H]2ON(c3ccccc3)C(c3ccccc3F)[C@H]2C(=O)N1c1ccc(Cc2ccc(N3C(=O)[C@@H]4ON(c5ccccc5)C(c5ccccc5F)[C@@H]4C3=O)cc2)cc1 (stereo partly drawn)
inactive: [1] > 100 µM | [2] > 100 µM | [3] 46.1 µM | [8] > 100 µM | [4] > 100 µM | [5] > 100 µM | [6] > 100 µM | [7] > 100 µM

— ChEMBL document CHEMBL1201862, “PubChem BioAssay data set” (2004)
